# Experimental data reported in patent publication US20100285959A1, “HERBICIDAL MIXTURES” (priority 2006, published 2010).
# What was measured:
# [1] = test system: field poppy (PAPRH); assay: Test 21 growth chamber, postemergence; format: in vivo, Papaver rhoeas; conditions: 19 DAA
# Description: (§1) A test was conducted to evaluate the effects on winter barley (HORVW, Hordeum vulgare L.), winter wheat (TRZAW, Triticum aestivum L.), and several weed species, of mixtures of Compound 2 with the commercial herbicide (2,4-dichlorophenoxy)acetic acid (2,4-D), an auxin mimic. […] Plants were treated postemergence at the 2-4 leaf growth stage, and each treatment was replicated one time. […] Plants were watered as needed. […] Results are from single replicates.
# [2] = test system: winter barley (HORVW); assay: Test 21 growth chamber, postemergence; format: in vivo, Hordeum vulgare; conditions: 19 DAA
# Description: as §1
# [3] = test system: wild chamomile (MATCH); assay: Test 23 growth chamber, postemergence; format: in vivo, Matricaria chamomilla; conditions: 21 DAA
# Description: as §1, with “species” for “species,”, “herbicides” for “herbicide”, “(2,4-D) and (4-chloro-2-methylphenoxy)acetic acid (MCPA),” for “(2,4-D), an”, “mimics.” for “mimic.”, “three times.” for “one time.”, “means of the three” for “from single”
# [4] = test system: common chickweed (STEME); assay: Test 22 growth chamber, postemergence; format: in vivo, Stellaria media; conditions: 25 DAA
# Description: as §1, with “species” for “species,”, “herbicides” for “herbicide”, “(2,4-D) and (4-chloro-2-methylphenoxy)acetic acid (MCPA),” for “(2,4-D), an”, “mimics.” for “mimic.”, “stage, except KCHSC, SASKR” for “stage,”, “STEME which were in the 4-8 leaf growth stage. Each” for “each”
# [5] = test system: kochia (KCHSC); assay: Test 23 growth chamber, postemergence; format: in vivo, Kochia scoparia; conditions: 21 DAA
# Description: as §1, with “species” for “species,”, “herbicides” for “herbicide”, “(2,4-D) and (4-chloro-2-methylphenoxy)acetic acid (MCPA),” for “(2,4-D), an”, “mimics.” for “mimic.”, “three times.” for “one time.”, “means of the three” for “from single”
# [6] = test system: wild mustard (SINAR); assay: Test 22 growth chamber, postemergence; format: in vivo, Sinapis arvensis; conditions: 25 DAA
# Description: as §1, with “species” for “species,”, “herbicides” for “herbicide”, “(2,4-D) and (4-chloro-2-methylphenoxy)acetic acid (MCPA),” for “(2,4-D), an”, “mimics.” for “mimic.”, “stage, except KCHSC, SASKR” for “stage,”, “STEME which were in the 4-8 leaf growth stage. Each” for “each”
# [7] = test system: barley (HORVX); assay: Test 30 growth chamber, postemergence; format: in vivo, Hordeum vulgare
# Description: A growth chamber test was conducted to evaluate the effects on the plant species wheat (TRZAW, Triticum aestivum L.) and barley (HORVX, Hordeum vulgare L.) with mixtures of Compound 1 and Compound 2 with glycerol. Wheat and barley seeds were planted in a sandy loam soil having 0.9% organic matter and a pH of 6.3. […] Wheat and barley plants were treated postemergence at the two leaf growth stage for Compound 1 and at the three leaf growth stage for Compound 2. Each treatment was replicated one time. […] Plants were watered as needed. […] Colby's Equation was used to determine herbicidal effects expected from the mixtures.
# [8] = test system: jimsonweed (DATST); assay: Test 14 field trial, preemergence, growth as percent of control; format: in vivo, Datura stramonium
# Text: (§2) Corn seeds (hybrid ‘Pioneer 31G96 RR’) were planted in mid spring season, 3.8 cm deep in a clay loam soil having 2% organic matter and a pH of 6.6. Plots were 6.1 m long by 3.0 m wide with rows spaced 76 cm apart. Seeds were spaced 15 cm apart within the rows. The field was managed using conventional tillage practices. […] Yellow nutsedge was only evaluated 19 and 28 days after application, and ivyleaf morningglory could only be evaluated 28 days after application. […] Results are the means of the three replicates. This growth inhibition data was converted to results in the form of “plant growth as a percent of control plant growth” using the calculation “100 minus growth inhibition”. […] For “growth as a percent of control” data, Colby's Equation calculates the expected additive effect of herbicidal mixtures having two active ingredients as follows:
# (§3) Ga+b=GaGb/100 • wherein Ga+b is the growth as a percent of control of plants treated with the mixture expected from additive contribution of the individual components, • Ga is the observed growth as a percent of control of plants treated with the first active ingredient at the same use rate as in the mixture, and • Gb is the observed growth as a percent of control of plants treated with the second active ingredient at the same use rate as in the mixture. For mixtures having three active ingredients, Colby's Equation to calculate the expected additive effect of herbicidal mixtures is as follows:
# (§4) Ga+b+c=GaGbGc/10,000 • wherein Ga and Gb are as defined above and • Ga+b+c is the growth as a percent of control of plants treated with the mixture expected from additive contribution of the individual components, and • Gc is the observed growth as a percent of control of plants treated with the third active ingredient at the same use rate as in the mixture. When these two forms of Colby's Equation are used, if the observed effects on weeds are less than the expected values, the mixture is synergistic.
# [9] = test system: velvetleaf (ABUTH); assay: as above; format: in vivo, Abutilon theophrasti
# Text: as §2, §3, §4
# [10] = test system: giant ragweed (AMBTR); assay: as above; format: in vivo, Ambrosia trifida
# Text: as §2, §3, §4
# [11] = test system: common ragweed (AMBEL); assay: as above; format: in vivo, Ambrosia artemisiifolia
# Text: as §2, §3, §4
# [12] = 2,4-D or MCPA alone 250 g a.i./ha
smiles,measurement,setting,value
"O=C(O)COc1ccc(Cl)cc1Cl [2,4-D, (2,4-dichlorophenoxy)acetic acid]",Postemergence PAPRH Obs,"[1]; 2,4-D alone 125 g a.i./ha",35
same,Postemergence PAPRH Obs,"[1]; 2,4-D alone 250 g a.i./ha",35
same,Postemergence HORVW Obs,"[2]; 2,4-D alone 125 g a.i./ha",25
same,Postemergence HORVW Obs,"[2]; 2,4-D alone 250 g a.i./ha",25
same,Postemergence MATCH Obs,[3]; [12],60
same,Postemergence STEME Obs,[4]; [12],55
same,Postemergence KCHSC Obs,[5]; [12],70
same,Postemergence SINAR Obs,[6]; [12],75
"Nc1nc(C2CC2)nc(C(=O)O)c1Cl [Compound 1, 6-amino-5-chloro-2-cyclopropyl-4-pyrimidinecarboxylic acid]",HORVX Obs,"[7]; 18 DAA, Cpd 1 1 g a.i./ha",0%
same,HORVX Obs,"[7]; 18 DAA, Cpd 1 4 g a.i./ha",20%
same,HORVX Obs,"[7]; 18 DAA, Cpd 1 16 g a.i./ha",40%
"COC(=O)c1nc(C2CC2)nc(N)c1Cl [Compound 2, methyl 6-amino-5-chloro-2-cyclopropyl-4-pyrimidinecarboxylate]",Postemergence PAPRH Obs,[1]; Cpd 2 alone 16 g a.i./ha,65
same,Postemergence HORVW Obs,[2]; Cpd 2 alone 16 g a.i./ha,30
same,Obs growth % of control,"[8]; 19 DAA, 75 g a.i./ha",93%
same,Obs growth % of control,"[8]; 19 DAA, 100 g a.i./ha",73%
same,Obs growth % of control,"[8]; 28 DAA, 75 g a.i./ha",32%
same,Obs growth % of control,"[8]; 28 DAA, 100 g a.i./ha",30%
same,Obs growth % of control,"[8]; 56 DAA, 75 g a.i./ha",0%
same,Obs growth % of control,"[8]; 56 DAA, 100 g a.i./ha",5%
same,Obs growth % of control,"[9]; 19 DAA, 75 g a.i./ha",80%
same,Obs growth % of control,"[9]; 19 DAA, 100 g a.i./ha",60%
same,Obs growth % of control,"[9]; 28 DAA, 75 g a.i./ha",43%
same,Obs growth % of control,"[9]; 28 DAA, 100 g a.i./ha",22%
same,Obs growth % of control,"[9]; 56 DAA, 75 g a.i./ha",43%
same,Obs growth % of control,"[9]; 56 DAA, 100 g a.i./ha",30%
same,Postemergence MATCH Obs,[3]; Cpd 2 alone 4 g a.i./ha,52
same,Postemergence MATCH Obs,[3]; Cpd 2 alone 8 g a.i./ha,63
same,Postemergence MATCH Obs,[3]; Cpd 2 alone 16 g a.i./ha,75
same,Postemergence STEME Obs,[4]; Cpd 2 alone 4 g a.i./ha,50
same,Postemergence STEME Obs,[4]; Cpd 2 alone 8 g a.i./ha,50
same,Postemergence STEME Obs,[4]; Cpd 2 alone 16 g a.i./ha,55
same,Obs growth % of control,"[10]; 19 DAA, 75 g a.i./ha",65%
same,Obs growth % of control,"[10]; 19 DAA, 100 g a.i./ha",73%
same,Obs growth % of control,"[10]; 28 DAA, 75 g a.i./ha",100%
same,Obs growth % of control,"[10]; 28 DAA, 100 g a.i./ha",23%
same,Obs growth % of control,"[10]; 56 DAA, 75 g a.i./ha",20%
same,Obs growth % of control,"[10]; 56 DAA, 100 g a.i./ha",18%
same,Postemergence KCHSC Obs,[5]; Cpd 2 alone 4 g a.i./ha,53
same,Postemergence KCHSC Obs,[5]; Cpd 2 alone 8 g a.i./ha,60
same,Postemergence KCHSC Obs,[5]; Cpd 2 alone 16 g a.i./ha,70
same,Obs growth % of control,"[11]; 19 DAA, 75 g a.i./ha",75%
same,Obs growth % of control,"[11]; 19 DAA, 100 g a.i./ha",55%
same,Obs growth % of control,"[11]; 28 DAA, 75 g a.i./ha",20%
same,Obs growth % of control,"[11]; 28 DAA, 100 g a.i./ha",15%
same,Obs growth % of control,"[11]; 56 DAA, 75 g a.i./ha",17%
same,Obs growth % of control,"[11]; 56 DAA, 100 g a.i./ha",12%
same,Postemergence SINAR Obs,[6]; Cpd 2 alone 4 g a.i./ha,60
same,Postemergence SINAR Obs,[6]; Cpd 2 alone 8 g a.i./ha,65
same,Postemergence SINAR Obs,[6]; Cpd 2 alone 16 g a.i./ha,65
same,HORVX Obs,"[7]; 17 DAA, Cpd 2 1 g a.i./ha",25%
same,HORVX Obs,"[7]; 17 DAA, Cpd 2 4 g a.i./ha",30%
same,HORVX Obs,"[7]; 17 DAA, Cpd 2 16 g a.i./ha",35%
"CCc1cccc(C)c1N(C(=O)CCl)[C@@H](C)COC [S-Metolachlor, S-metolachlor, reference compound]",Obs growth % of control,"[8]; 19 DAA, 1870 g a.i./ha",100%
same,Obs growth % of control,"[8]; 28 DAA, 1870 g a.i./ha",22%
same,Obs growth % of control,"[8]; 56 DAA, 1870 g a.i./ha",30%
same,Obs growth % of control,"[9]; 19 DAA, 1870 g a.i./ha",68%
same,Obs growth % of control,"[9]; 28 DAA, 1870 g a.i./ha",6%
same,Obs growth % of control,"[9]; 56 DAA, 1870 g a.i./ha",87%
same,Obs growth % of control,"[10]; 19 DAA, 1870 g a.i./ha",83%
same,Obs growth % of control,"[10]; 28 DAA, 1870 g a.i./ha",88%
same,Obs growth % of control,"[10]; 56 DAA, 1870 g a.i./ha",100%
same,Obs growth % of control,"[11]; 19 DAA, 1870 g a.i./ha",100%
same,Obs growth % of control,"[11]; 28 DAA, 1870 g a.i./ha",75%
same,Obs growth % of control,"[11]; 56 DAA, 1870 g a.i./ha",93%
